target: T1, EhiCA (Entamoeba histolytica, UniProt C4LXK3); assay: biochemical; settings: not given
T1 construct: gene EHI_073380; His-tag cleaved with thrombin; 21 kDa (21/25 kDa doublet); one Zn per chain; Zn ligands Cys50, His103, Cys106, dyad Asp52-Arg54; dimer and trimer seen on SDS-PAGE
T1 sequence (C4LXK3 1-188): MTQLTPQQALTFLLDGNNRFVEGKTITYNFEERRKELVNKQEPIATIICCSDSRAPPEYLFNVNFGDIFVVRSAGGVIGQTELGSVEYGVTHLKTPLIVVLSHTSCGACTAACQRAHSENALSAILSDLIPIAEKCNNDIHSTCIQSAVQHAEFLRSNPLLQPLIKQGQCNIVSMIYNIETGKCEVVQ

How did the Ki turn out when `N#CS` [SCN^−] was run?
The Ki was 7.9 mM.

How did the Ki turn out when `O=S(=O)(O)O` [SO4^2−] was run?
Its Ki is 21.6 mM.

With `I` [I^−] as the compound, how does the Ki read?
Its Ki is 7.4 mM.

With `O=P(O)(O)OP(=O)(O)O` [P2O7^4−] as the compound, how does the Ki read?
Its Ki is greater than 100 mM.

same assay, conditions: CO2 hydration, TRIS pH 8.3, 20 °C (methods: 25 °C), 0.1 M NaClO4, 15 min pre-incubation; as sodium salt; read-out: KI [mM] ^#

How did the Ki turn out when `F[P-](F)(F)(F)(F)F` [PF6^−] was run?
The Ki was greater than 100 mM.

same assay, conditions: read-out: KI [mM] ^#

Which Ki does the source give for `O=NO` [NO2^−] here?
The Ki was 1.7 mM.

`N#CO` [CNO^−] was tested. Which Ki did it give?
The Ki was 0.77 mM.

With `[O]=[Re](=[O])(=[O])[OH]` [ReO4^−] as the compound, how does the Ki read?
Its Ki is 7.1 mM.

With `Cl` [Cl^−] as the compound, how does the Ki read?
Its Ki is greater than 100 mM.

With `OB(O)c1ccccc1` [Ph-B(OH)2] as the compound, how does the Ki read?
The Ki was 0.047 mM.

With `F` [F^−] as the compound, how does the Ki read?
The Ki was greater than 100 mM.

With `[O-][Cl+3]([O-])([O-])O` [ClO4^−] as the compound, how does the Ki read?
The Ki was greater than 100 mM.

With `O=S(O)O` [HSO3^−] as the compound, how does the Ki read?
Its Ki is 11.5 mM.

How did the Ki turn out when `O=S(=O)(O)C(F)(F)F` [CF3SO3^−] was run?
The Ki was greater than 100 mM.

For `O=S(=O)(O)NS(=O)(=O)O` [NH(SO3)2^2−], which Ki is on record?
The Ki was 2.2 mM.

Which Ki does the source give for `O=S(=O)(O)F` [FSO3^−] here?
The Ki was 0.086 mM.

With `F[B-](F)(F)F` [BF4^−] as the compound, how does the Ki read?
Its Ki is greater than 100 mM.

`S=C(S)S` [CS3^2−] was tested. Which Ki did it give?
The Ki was 6 mM.

Which Ki does the source give for `O=[Te](=O)(O)O` [TeO4^2−] here?
Its Ki is 0.61 mM.

How did the Ki turn out when `S` [HS^−] was run?
Its Ki is 6.9 mM.

For `O=[Se](=O)(O)O` [SeO4^2−], which Ki is on record?
The Ki was 6 mM.

For `NS(N)(=O)=O` [H2NSO2NH2], which Ki is on record?
The Ki was 0.028 mM.

`O=[N+]([O-])O` [NO3^−] was tested. Which Ki did it give?
Its Ki is 3.6 mM.

How did the Ki turn out when `[O]=[Ru](=[O])(=[O])[OH]` [RuO4^−] was run?
Its Ki is 7 mM.

Which Ki does the source give for `[O]=[V]([OH])([OH])[O][V](=[O])([OH])[OH]` [V2O7^4−] here?
The Ki was greater than 100 mM.

`N#C[SeH]` [SeCN^−] was tested. Which Ki did it give?
The Ki was 0.87 mM.

Which Ki does the source give for `NS(=O)(=O)O` [H2NSO3H] here?
The Ki was greater than 100 mM.

For `O=S(=O)(O)OOS(=O)(=O)O` [S2O8^2−], which Ki is on record?
Its Ki is 8.4 mM.

Which Ki does the source give for `Br` [Br^−] here?
Its Ki is 36.8 mM.

Which Ki does the source give for `CCN(CC)C(=S)S` [Et2NCS2^−] here?
Its Ki is 0.51 mM.

— paper PMC6321543, “Cloning, Characterization and Anion Inhibition Studies of a β-Carbonic Anhydrase from the Pathogenic Protozoan Entamoeba histolytica” (Molecules, 2018)
